Test systems include PC-3 prostate; CCRF-CEM leukemia; NCI/ADR-RES ovarian; T-47D breast; HCT-15 colon; MDA-MB-231 breast; SR leukemia; HCC-2998 colon; RPMI-8226 leukemia; SK-MEL-5 melanoma.
Common to all, as to test: growth of human tumour cells (NCI), 48 h

Where “and” joins values, the source holds several entries; their conditions need not be identical. Equal entries are not always repeated.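 Cells were grown in 96-well plates and exposed to each compound for 48 hours at five concentrations; endpoints were interpolated linearly between bracketing concentrations, or set to the highest concentration if not reached. The concentration for 50% growth inhibition is given as GI50. At the TGI there is no net growth.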 Where only a bound is given, the exact number is not on record here.

Consider `O=C(O)C[C@H](O)C[C@H](O)/C=C/c1c(C2CC2)nc2ccccc2c1-c1ccc(F)cc1`, for which the GI50 is 0.508 µM and 0.423 µM in the assay with PC-3 prostate; 58.4 µM and 25.8 µM in the assay with CCRF-CEM leukemia; 2.82 µM and 0.86 µM with NCI/ADR-RES ovarian; 6.16 µM and 0.616 µM with HCT-15 colon; 0.287 µM and 0.0564 µM with MDA-MB-231 breast; 2.59 µM and 0.615 µM in the assay on SR leukemia. For the same molecule, the GI50 in the assay on HCC-2998 colon is 42 µM and 49.9 µM; in the assay with RPMI-8226 leukemia it was 25 µM and 10.4 µM; with SK-MEL-5 melanoma, 12.8 µM and 1.32 µM. Also, the TGI with PC-3 prostate, in the assay on CCRF-CEM leukemia, in the assay with NCI/ADR-RES ovarian, in the assay with T-47D breast, in the assay with HCT-15 colon and with SR leukemia was over 100 µM in each case. Moreover, the TGI with HCC-2998 colon is over 100 µM; in the assay on RPMI-8226 leukemia, over 100 µM; in the assay with SK-MEL-5 melanoma it was 31.1 µM and 3.56 µM.
As for `O=C(CCN1CCCC1)Nc1ccc2c(NCc3ccccc3)c3ccccc3nc2c1`, the GI50 in the assay with PC-3 prostate is 0.442 µM; with CCRF-CEM leukemia, 0.493 µM; in the assay on NCI/ADR-RES ovarian, 11.9 µM; in the assay on T-47D breast, 0.562 µM; in the assay with HCT-15 colon, 1.86 µM; with MDA-MB-231 breast it was 0.377 µM. Moreover, the GI50 in the assay with SR leukemia was 0.261 µM; with HCC-2998 colon it was 0.466 µM; in the assay with RPMI-8226 leukemia, 0.411 µM; with SK-MEL-5 melanoma it was 1.31 µM. In addition, the TGI with PC-3 prostate was 2.03 µM; in the assay on NCI/ADR-RES ovarian it was 55 µM; in the assay on T-47D breast it was 2.89 µM; in the assay on HCT-15 colon, 6.97 µM; in the assay with MDA-MB-231 breast it was 1.59 µM; in the assay on SR leukemia, 1.58 µM. The figures for the TGI in the assay with HCC-2998 colon and in the assay with SK-MEL-5 melanoma were 2.02 µM and 2.61 µM, respectively.
With `CCOc1ccc2c(-c3ccnc(Nc4cc(OC)cc(C(F)(F)F)c4)n3)cnn2n1`, the GI50 was over 15.5 µM in the assay with PC-3 prostate; over 25 µM in the assay with CCRF-CEM leukemia; 4.66 µM with NCI/ADR-RES ovarian; 1.26 µM in the assay on T-47D breast; over 23.3 µM in the assay with HCT-15 colon; 9.6 µM with MDA-MB-231 breast. The GI50 with SR leukemia is 1.32 µM; in the assay with HCC-2998 colon, over 25 µM; in the assay on RPMI-8226 leukemia, over 18.3 µM; with SK-MEL-5 melanoma it was over 14.8 µM. In addition, the TGI in the assay with PC-3 prostate was over 25 µM; in the assay with CCRF-CEM leukemia, over 25 µM; in the assay with NCI/ADR-RES ovarian, over 25 µM; with T-47D breast, over 25 µM; in the assay with HCT-15 colon, over 25 µM; with MDA-MB-231 breast, over 22.5 µM. Moreover, the TGI in the assay with SR leukemia, with HCC-2998 colon, with RPMI-8226 leukemia and with SK-MEL-5 melanoma was over 25 µM in each case.
For `CSC(=S)Nc1cc(C)cc(C)n1`, the TGI is over 31.6 µM in the assay with PC-3 prostate; over 31.6 µM in the assay on CCRF-CEM leukemia; over 31.6 µM in the assay on NCI/ADR-RES ovarian; over 31.6 µM in the assay on T-47D breast; over 31.6 µM in the assay with HCT-15 colon; over 100 µM in the assay on MDA-MB-231 breast. Also, the TGI with SR leukemia was over 10 µM; with HCC-2998 colon, over 31.6 µM; with RPMI-8226 leukemia it was over 31.6 µM; in the assay with SK-MEL-5 melanoma, over 100 µM.
As for `CCC1(O)CC(OC2CC(N(C)C)C(OC3CC(O)C(OC4OC(C)C(=O)C=C4N)C(C)O3)C(C)O2)c2c(cc3c(c2O)C(=O)c2c(O)cccc2C3=O)C1C(=O)OC` (stereo not given), the TGI is 0.333 µM and 1.1 µM in the assay with PC-3 prostate; 0.131 µM and 0.818 µM in the assay on CCRF-CEM leukemia; 5.5 µM and 27 µM in the assay with NCI/ADR-RES ovarian; 0.657 µM and 1.79 µM in the assay on T-47D breast; 1.66 µM and 11.8 µM in the assay on HCT-15 colon; 2.03 µM and 2.09 µM with MDA-MB-231 breast. The TGI was 1.06 µM with SR leukemia; 0.0824 µM and 0.0294 µM with HCC-2998 colon; 0.154 µM and 0.0597 µM in the assay with RPMI-8226 leukemia; 0.179 µM and 0.101 µM with SK-MEL-5 melanoma. The GI50 in the assay with NCI/ADR-RES ovarian was 1.86 µM; in the assay with T-47D breast, 0.0221 µM; with HCT-15 colon, 0.471 µM; in the assay with MDA-MB-231 breast it was 0.0369 µM.
On to `C=C1C(=O)O[C@H]2[C@H]1CC/C(COC(=O)CCCCCC(=O)OC/C1=C/CC[C@@]3(C)O[C@H]3[C@H]3OC(=O)C(=C)[C@@H]3CC1)=C\CC[C@@]1(C)O[C@@H]21`, for which the GI50 is 2.24 µM in the assay with PC-3 prostate; 0.393 µM with CCRF-CEM leukemia; 3.64 µM in the assay on NCI/ADR-RES ovarian; 1.96 µM in the assay with T-47D breast; 1.68 µM with HCT-15 colon; 1.68 µM in the assay with MDA-MB-231 breast. Besides, the GI50 in the assay with SR leukemia was 0.336 µM; with HCC-2998 colon, 1.95 µM; with RPMI-8226 leukemia, 1.69 µM; in the assay on SK-MEL-5 melanoma it was 1.91 µM. Also, the TGI was 5.96 µM with PC-3 prostate; 3.86 µM in the assay with CCRF-CEM leukemia; 24.8 µM in the assay on NCI/ADR-RES ovarian; 5.74 µM with T-47D breast; 3.81 µM in the assay on HCT-15 colon; 3.62 µM in the assay on MDA-MB-231 breast. In addition, the TGI in the assay with SR leukemia was 5.58 µM; with HCC-2998 colon, 3.98 µM; with RPMI-8226 leukemia, 5.51 µM; in the assay with SK-MEL-5 melanoma, 4.37 µM.
As for `[2H]C([2H])([2H])NC(=O)c1nnc(NC(=O)C2CC2)cc1Nc1cccc(-c2ncn(C)n2)c1OC`, the GI50 is 29.5 µM in the assay on PC-3 prostate; 19.8 µM in the assay with CCRF-CEM leukemia; 51.3 µM in the assay with NCI/ADR-RES ovarian; 32.4 µM in the assay with T-47D breast; 15.5 µM in the assay on HCT-15 colon; 19.1 µM with MDA-MB-231 breast. Besides, the GI50 in the assay with SR leukemia is 16.9 µM; in the assay on HCC-2998 colon, 96.3 µM; with RPMI-8226 leukemia, 14.2 µM; in the assay on SK-MEL-5 melanoma it was 50.2 µM. Moreover, the TGI in the assay with PC-3 prostate, with CCRF-CEM leukemia, in the assay with NCI/ADR-RES ovarian, with T-47D breast, in the assay on HCT-15 colon and with MDA-MB-231 breast was over 100 µM each time. For the same molecule, the TGI in the assay on SR leukemia, with HCC-2998 colon, in the assay with RPMI-8226 leukemia and in the assay on SK-MEL-5 melanoma was over 100 µM in each case.
As for `CCCCNNC(=O)c1ccc(Br)cc1`, the GI50 with PC-3 prostate is 4.12 µM; in the assay with CCRF-CEM leukemia, 2.46 µM; in the assay with NCI/ADR-RES ovarian, 1.03 µM; in the assay with T-47D breast, 1.11 µM; in the assay on HCT-15 colon, 6.87 µM; in the assay on MDA-MB-231 breast, 9.03 µM. The GI50 is 2.76 µM in the assay on SR leukemia, 4.35 µM with HCC-2998 colon, 0.956 µM in the assay on RPMI-8226 leukemia and 1.94 µM with SK-MEL-5 melanoma. Besides, the TGI with PC-3 prostate is over 50 µM; with CCRF-CEM leukemia it was over 50 µM; in the assay with NCI/ADR-RES ovarian, over 37.8 µM; in the assay on T-47D breast, 7.49 µM; in the assay on HCT-15 colon, over 50 µM; in the assay with MDA-MB-231 breast, over 50 µM. The TGI with SR leukemia was over 50 µM; in the assay on HCC-2998 colon it was 24 µM; with RPMI-8226 leukemia, over 50 µM; in the assay on SK-MEL-5 melanoma, 7.77 µM.

The values above are taken from PubChem BioAssay (NCI).
